Experimental data reported in patent US20130109682A1, “CYCLIC ETHER COMPOUNDS USEFUL AS KINASE INHIBITORS” (NOVARTIS AG, priority 2010, published 2013).

Tests used:
Assay type in all cases: biochemical
PIM2 = PIM2 (Homo sapiens, UniProt Q9P1W9); experiment: KinaseGlo Pim2 ATP depletion assay
Summary of the method: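 Luminescent ATP-depletion read-out of PIM2 phosphorylating BAD peptide (RSRHSSYPAGT-OH). Final conditions: 5 nM PIM2, 4 μM ATP, 10 μM peptide, 2.5% DMSO in 50 mM HEPES pH 7.5, 5 mM MgCl2, 1 mM DTT, 0.05% BSA. Enzyme–peptide preincubated 15 min with compound; reaction run to ~50% ATP depletion.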

PIM3 [1] = biological target: T1, PIM3 (Homo sapiens, UniProt Q86V86); experiment: KinaseGlo Pim3 ATP depletion assay
Summary of the method: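 Kinase was preincubated 15 min with BAD peptide in HEPES pH 7.5/MgCl2/DTT/BSA before ATP was added. Final concentrations were 40 μM ATP, 100 μM BAD peptide and 2.5% DMSO, with 5 nM enzyme. The reaction ran to ~50% ATP depletion and remaining ATP was read by KinaseGlo Plus luminescence.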

PIM1 = PIM1 (Homo sapiens, UniProt P11309); experiment: Pim 1 AlphaScreen assay (high ATP); details: read-out: Pim1 IC50
Summary of the method: (§1)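 This is a bead-based AlphaScreen run at high ATP (11-125× Km) with biotin-Bad peptide (100 nM in the substrate mix), in 50 mM Hepes pH 7.5, 5 mM MgCl2, 0.05% BSA, 0.01% Tween-20, 1 mM DTT and 2.5% DMSO final. After ~2 h the reaction was stopped with EDTA. Phospho-peptide was detected overnight with anti-phospho Ser/Thr antibody on Protein A and streptavidin beads, giving IC50.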

PIM3 [2] = biological target: T1, PIM3; experiment: Pim 3 AlphaScreen assay (high ATP); details: read-out: Pim3 IC50
Summary of the method: as §1

Chain of PIM1 (P11309 whole entry): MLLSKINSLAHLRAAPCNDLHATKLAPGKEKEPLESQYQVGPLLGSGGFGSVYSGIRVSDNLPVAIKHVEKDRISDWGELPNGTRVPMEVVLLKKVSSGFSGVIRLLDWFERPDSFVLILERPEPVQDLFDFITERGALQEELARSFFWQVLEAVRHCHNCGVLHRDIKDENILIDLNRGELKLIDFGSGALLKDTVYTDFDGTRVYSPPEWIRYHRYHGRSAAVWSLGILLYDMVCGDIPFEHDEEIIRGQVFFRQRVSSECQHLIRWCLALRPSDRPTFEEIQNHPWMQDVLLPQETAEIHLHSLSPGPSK
Chain of PIM2 (Q9P1W9 whole entry): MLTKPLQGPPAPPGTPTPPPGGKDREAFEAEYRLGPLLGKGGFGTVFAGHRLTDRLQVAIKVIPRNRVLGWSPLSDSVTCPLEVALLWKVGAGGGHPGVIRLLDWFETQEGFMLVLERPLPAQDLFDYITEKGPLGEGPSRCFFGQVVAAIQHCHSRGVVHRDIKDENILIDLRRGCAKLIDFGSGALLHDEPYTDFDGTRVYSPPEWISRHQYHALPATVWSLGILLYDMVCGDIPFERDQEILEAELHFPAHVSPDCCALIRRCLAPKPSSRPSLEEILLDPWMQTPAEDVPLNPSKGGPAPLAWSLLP

Structure (SMILES) | IC50 (PIM2) [nM] | IC50 (PIM3 [1]) [nM] | IC50 (PIM1) [nM] | IC50 (PIM3 [2]) [nM]
C=C1[C@@H](O)C[C@@H](c2ccncc2NC(=O)c2nc(-c3ccccc3)cnc2N)OC12CC2 [Example 5, 3-amino-N-(4-((5S,7S)-7-hydroxy-8-methylene-4-oxaspiro[2.5]octan-5-yl)pyridin-3-yl)-6-phenylpyrazine-2-carboxamide] | 254 | 37.3 | – | –
C[C@@H]1O[C@H](c2ccncc2NC(=O)c2nc(-c3ccccc3)cnc2N)[C@@H](F)[C@H](O)[C@@]1(C)O [Example 63, 3-amino-N-(4-((2R,3S,4R,5R,6S)-3-fluoro-4,5-dihydroxy-5,6-dimethyltetrahydro-2H-pyran-2-yl)pyridin-3-yl)-6-phenylpyrazine-2-carboxamide] | 924 | 31 | – | –
N[C@@H]1C[C@H](c2ccncc2NC(=O)c2ccc(F)c(-c3c(F)cccc3F)n2)O[C@@H]2CCC[C@H]12 [Example 224, N-(4-((2R,4R,4aR,7aR)-4-aminooctahydrocyclopenta[b]pyran-2-yl)pyridin-3-yl)-6-(2,6-difluorophenyl)-5-fluoropicolinamide] | – | – | 0.1 | 4.1
C[C@H]1O[C@@H](c2ccncc2NC(=O)c2ccc(F)c(-c3c(F)cccc3F)n2)C[C@@H](N)[C@]1(C)O [Example 219, N-(4-((2R,4R,5S,6R)-4-amino-5-hydroxy-5,6-dimethyltetrahydro-2H-pyran-2-yl)pyridin-3-yl)-6-(2,6-difluorophenyl)-5-fluoropicolinamide] | – | – | 0.09 | 1.4
COc1cc(F)c(-c2nc(C(=O)Nc3cnccc3[C@H]3C[C@@H](N)[C@](C)(O)[C@@H](C)O3)ccc2F)c(F)c1 [Example 242, N-(4-((2R,4R,5S,6R)-4-amino-5-hydroxy-5,6-dimethyltetrahydro-2H-pyran-2-yl)pyridin-3-yl)-6-(2,6-difluoro-4-methoxyphenyl)-5-fluoropicolinamide] | – | – | 0.04 | 0.8
Nc1ncc(-c2ccccc2)nc1C(=O)Nc1cnccc1[C@@H]1C[C@H](O)[C@]2(O)CCC[C@@H]2O1 [Example 186, 3-amino-N-(4-((2S,4S,4aR,7aS)-4,4a-dihydroxyoctahydrocyclopenta[b]pyran-2-yl)pyridin-3-yl)-6-phenylpyrazine-2-carboxamide] | 3190 | 610 | – | –
Nc1ncc(-c2ccccc2)nc1C(=O)Nc1cnccc1[C@@H]1C[C@H](O)[C@]2(O)CCCC[C@@H]2O1 [Example 176, 3-amino-N-(4-((2S,4S,4aR,8aS)-4,4a-dihydroxyoctahydro-2H-chromen-2-yl)pyridin-3-yl)-6-phenylpyrazine-2-carboxamide] | 1820 | 202 | – | –
Nc1ncc(-c2ccccc2)nc1C(=O)Nc1cnccc1[C@H]1C[C@@H](O)[C@H](O)[C@@H](CCl)O1 [Example 36, 3-amino-N-(4-((2R,4R,5S,6S)-6-(chloromethyl)-4,5-dihydroxytetrahydro-2H-pyran-2-yl)pyridin-3-yl)-6-phenylpyrazine-2-carboxamide] | 8 | 2 | – | –
O=C1CC[C@H]2O[C@@H](c3ccncc3NC(=O)c3ccc(F)c(-c4c(F)cccc4F)n3)C[C@@H](O)[C@@H]2N1 [Example 196, 6-(2,6-difluorophenyl)-5-fluoro-N-(4-((2R,4R,4aS,8aR)-4-hydroxy-6-oxooctahydro-2H-pyrano[3,2-b]pyridin-2-yl)pyridin-3-yl)picolinamide] | 10.8 | 3.6 | – | –
N[C@H]1C[C@@H](c2ccncc2NC(=O)c2csc(-c3c(F)cccc3F)n2)O[C@H]2CCC[C@H]21 [Example 230, N-(4-((2S,4S,4aS,7aS)-4-aminooctahydrocyclopenta[b]pyran-2-yl)pyridin-3-yl)-2-(2,6-difluorophenyl)thiazole-4-carboxamide] | – | – | 6.83 | 482
Nc1cc(F)c(-c2c(F)cccc2F)nc1C(=O)Nc1cnccc1[C@H]1C[C@@H](N)[C@@]2(O)CCCC[C@H]2O1 [Example 238, 3-amino-N-(4-((2R,4R,4aS,8aR)-4-amino-4a-hydroxyoctahydro-2H-chromen-2-yl)pyridin-3-yl)-6-(2,6-difluorophenyl)-5-fluoropicolinamide] | – | – | 0.08 | 0.6
Nc1cnc(-c2c(F)cccc2F)nc1C(=O)Nc1cnccc1[C@H]1C[C@@H](N)[C@@]2(O)CCC[C@H]2O1 [Example 213, 5-amino-N-(4-((2R,4R,4aS,7aR)-4-amino-4a-hydroxyoctahydrocyclopenta[b]pyran-2-yl)pyridin-3-yl)-2-(2,6-difluorophenyl)pyrimidine-4-carboxamide] | 6.3 | 5.8 | – | –
CC[C@]1(O)[C@H](O)C[C@H](c2ccncc2NC(=O)c2nc(-c3c(F)cccc3F)ncc2N)O[C@@H]1C [Example 143, 5-amino-2-(2,6-difluorophenyl)-N-(4-((2R,4R,5S,6R)-5-ethyl-4,5-dihydroxy-6-methyltetrahydro-2H-pyran-2-yl)pyridin-3-yl)pyrimidine-4-carboxamide] | 3.5 | 2.4 | – | –
CC[C@H]1O[C@@H](c2ccncc2NC(=O)c2nc(-c3ccccc3)ncc2N)C[C@@H](O)[C@@H]1O [Example 39, 5-amino-N-(4-((2R,4R,5S,6R)-6-ethyl-4,5-dihydroxytetrahydro-2H-pyran-2-yl)pyridin-3-yl)-2-phenylpyrimidine-4-carboxamide] | 40 | 4 | – | –
Nc1ncc(-c2ccccc2)nc1C(=O)Nc1cnccc1[C@H]1C[C@@H](O)[C@@]2(O)CCCC[C@H]2O1 [Example 173, 3-amino-N-(4-((2R,4R,4aS,8aR)-4,4a-dihydroxyoctahydro-2H-chromen-2-yl)pyridin-3-yl)-6-phenylpyrazine-2-carboxamide] | 15.7 | 3.6 | – | –
C[C@H]1O[C@@H](c2ccncc2NC(=O)c2nc(-c3ccccc3)cnc2N)C[C@@H](O)[C@]1(C)O [Example 84, 3-amino-N-(4-((2R,4R,5S,6R)-4,5-dihydroxy-5,6-dimethyltetrahydro-2H-pyran-2-yl)pyridin-3-yl)-6-phenylpyrazine-2-carboxamide] | 33 | 3 | – | –
O=C(Nc1cnccc1[C@H]1C[C@@H](O)[C@@]2(O)CCCC[C@H]2O1)c1c[nH]cc(-c2ccccc2)c1=O [Example 178, N-(4-((2R,4R,4aS,8aR)-4,4a-dihydroxyoctahydro-2H-chromen-2-yl)pyridin-3-yl)-4-oxo-5-phenyl-1,4-dihydropyridine-3-carboxamide] | 2180 | 124 | – | –
Nc1ncc(-c2ccccc2)nc1C(=O)Nc1cnccc1[C@H]1C[C@@H](O)[C@@]2(O)CCC[C@H]2O1 [Example 195, 3-amino-N-(4-((2R,4R,4aS,7aR)-4,4a-dihydroxyoctahydrocyclopenta[b]pyran-2-yl)pyridin-3-yl)-6-phenylpyrazine-2-carboxamide] | 12.1 | 3.2 | – | –
N[C@@H]1C[C@H](c2ccncc2NC(=O)c2ccc(F)c(-c3c(F)cccc3F)n2)O[C@@H]2CCC[C@]12O [Example 210, N-(4-((2R,4R,4aS,7aR)-4-amino-4a-hydroxyoctahydrocyclopenta[b]pyran-2-yl)pyridin-3-yl)-6-(2,6-difluorophenyl)-5-fluoropicolinamide] | 2.4 | 2.3 | – | –
C[C@H]1O[C@@H](c2ccncc2NC(=O)c2nc(-c3ccccc3)cnc2N)[C@H](F)[C@@H](O)[C@]1(C)O [Example 58, 3-amino-N-(4-((2S,3R,4S,5S,6R)-3-fluoro-4,5-dihydroxy-5,6-dimethyltetrahydro-2H-pyran-2-yl)pyridin-3-yl)-6-phenylpyrazine-2-carboxamide] | 276 | 27 | – | –
C[C@H]1O[C@@H](c2ccncc2NC(=O)c2nc(-c3ccccc3)ncc2N)C[C@@H](O)[C@]1(C)O [Example 32, 5-amino-N-(4-((2R,4R,5S,6R)-4,5-dihydroxy-5,6-dimethyltetrahydro-2H-pyran-2-yl)pyridin-3-yl)-2-phenylpyrimidine-4-carboxamide] | 44 | 3 | – | –
C[C@@H]1O[C@H](c2ccncc2NC(=O)c2nc(-c3ccccc3)cnc2N)C[C@H](O)[C@@]1(C)O [Example 86, 3-amino-N-(4-((2S,4S,5R,6S)-4,5-dihydroxy-5,6-dimethyltetrahydro-2H-pyran-2-yl)pyridin-3-yl)-6-phenylpyrazine-2-carboxamide] | 164 | 15 | – | –
